# Experimental data: ChEMBL document CHEMBL1201862, “PubChem BioAssay data set” (2004)
#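 Interpolation was linear, between the two tested concentrations surrounding the appropriate level; five concentrations were tested over 48 hours in 96-well plates. GI50 marks 50% less growth.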 Calls of active or inactive are those of the source. Rule as the data show it: active = GI50 up to about 1.1 µM and inactive = higher.
# Assays:
# Assay in all cases: growth of human tumour cells (NCI), 48 h
# NCI-H460 = test system: NCI-H460
# Hs-578T = test system: Hs-578T
# RXF 393 = test system: RXF 393
# SK-MEL-28 = test system: SK-MEL-28
# RPMI-8226 = test system: RPMI-8226
# SF-295 = test system: SF-295
# BT-549 = test system: BT-549
# NCI-H522 = test system: NCI-H522
# LOX IMVI = test system: LOX IMVI
# HCT-15 = test system: HCT-15
# OVCAR-8 = test system: OVCAR-8
# MDA-N = test system: MDA-N
# SW-620 = test system: SW-620
# IGROV-1 = test system: IGROV-1
# OVCAR-5 = test system: OVCAR-5
# PC-3 = test system: PC-3
# U-251 = test system: U-251
# A498 = test system: A498
# HOP-62 = test system: HOP-62
# SF-268 = test system: SF-268
# MDA-MB-231 = test system: MDA-MB-231
# CCRF-CEM = test system: CCRF-CEM
# SN12C = test system: SN12C
# SK-OV-3 = test system: SK-OV-3
# SK-MEL-2 = test system: SK-MEL-2
# COLO 205 = test system: COLO 205
# HT-29 = test system: HT-29
# HCC 2998 = test system: HCC 2998
# NCI-H23 = test system: NCI-H23
# KM12 = test system: KM12
# M14 = test system: M14
# DU-145 = test system: DU-145
# UACC-62 = test system: UACC-62
# UACC-257 = test system: UACC-257
# T47D = test system: T47D
# CAKI-1 = test system: CAKI-1
# HCT-116 = test system: HCT-116
# Malme-3M = test system: Malme-3M
# HOP-92 = test system: HOP-92
# ACHN = test system: ACHN
# MDA-MB-435 = test system: MDA-MB-435
# OVCAR-4 = test system: OVCAR-4
# HL-60 = test system: HL-60
# A549 = test system: A549
# SF-539 = test system: SF-539
# K562 = test system: K562
# 786-0 = test system: 786-0
# SNB-75 = test system: SNB-75
# SNB-19 = test system: SNB-19
# EKVX = test system: EKVX
# NCI/ADR-RES = test system: NCI/ADR-RES
# SK-MEL-5 = test system: SK-MEL-5
# NCI-H226 = test system: NCI-H226
# SR = test system: SR
# TK-10 = test system: TK-10
# MOLT-4 = test system: MOLT-4
# MCF7 = test system: MCF7
# OVCAR-3 = test system: OVCAR-3
# UO-31 = test system: UO-31
structure (smiles),measurement,setting,value
COc1ccc(C(O)CNC(=O)c2ccccc2)cc1 (configuration not stated),GI50,NCI-H460,> 100 µM (inactive)
same,GI50,Hs-578T,> 100 µM (inactive)
same,GI50,RXF 393,> 100 µM (inactive)
same,GI50,SK-MEL-28,> 100 µM (inactive)
same,GI50,RPMI-8226,> 100 µM (inactive)
same,GI50,SF-295,> 100 µM (inactive)
same,GI50,BT-549,> 100 µM (inactive)
same,GI50,NCI-H522,> 100 µM (inactive)
same,GI50,LOX IMVI,> 100 µM (inactive)
same,GI50,HCT-15,> 100 µM
same,GI50,OVCAR-8,> 100 µM (inactive)
same,GI50,MDA-N,> 100 µM (inactive)
same,GI50,SW-620,> 100 µM (inactive)
same,GI50,IGROV-1,> 100 µM (inactive)
same,GI50,OVCAR-5,> 100 µM (inactive)
same,GI50,PC-3,> 100 µM (inactive)
same,GI50,U-251,> 100 µM (inactive)
same,GI50,A498,> 100 µM (inactive)
same,GI50,HOP-62,> 100 µM (inactive)
same,GI50,SF-268,> 100 µM (inactive)
same,GI50,MDA-MB-231,> 100 µM (inactive)
same,GI50,CCRF-CEM,> 100 µM (inactive)
same,GI50,SN12C,> 100 µM (inactive)
same,GI50,SK-OV-3,> 100 µM (inactive)
same,GI50,SK-MEL-2,> 100 µM (inactive)
same,GI50,COLO 205,> 100 µM (inactive)
same,GI50,HT-29,> 100 µM (inactive)
same,GI50,HCC 2998,> 100 µM (inactive)
same,GI50,NCI-H23,> 100 µM (inactive)
same,GI50,KM12,> 100 µM (inactive)
same,GI50,M14,> 100 µM (inactive)
same,GI50,DU-145,> 100 µM (inactive)
same,GI50,UACC-62,> 100 µM (inactive)
same,GI50,UACC-257,> 100 µM (inactive)
same,GI50,T47D,> 100 µM (inactive)
same,GI50,CAKI-1,> 100 µM (inactive)
same,GI50,HCT-116,> 100 µM (inactive)
same,GI50,Malme-3M,> 100 µM (inactive)
same,GI50,HOP-92,> 100 µM (inactive)
same,GI50,ACHN,> 100 µM (inactive)
same,GI50,MDA-MB-435,> 100 µM (inactive)
same,GI50,OVCAR-4,> 100 µM (inactive)
same,GI50,HL-60,> 100 µM (inactive)
same,GI50,A549,> 100 µM (inactive)
same,GI50,SF-539,> 100 µM (inactive)
same,GI50,K562,> 100 µM (inactive)
same,GI50,786-0,> 100 µM (inactive)
same,GI50,SNB-75,> 100 µM (inactive)
same,GI50,SNB-19,> 100 µM (inactive)
same,GI50,EKVX,> 100 µM (inactive)
same,GI50,NCI/ADR-RES,> 100 µM (inactive)
same,GI50,SK-MEL-5,> 100 µM (inactive)
same,GI50,NCI-H226,> 100 µM (inactive)
same,GI50,SR,> 100 µM (inactive)
same,GI50,TK-10,> 100 µM (inactive)
same,GI50,MOLT-4,> 100 µM (inactive)
same,GI50,MCF7,> 100 µM (inactive)
same,GI50,OVCAR-3,> 100 µM (inactive)
C=C(CC[C@@H](C)[C@H]1CC[C@H]2[C@@H]3C[C@@H](O)[C@H]4C[C@@H](O)CC[C@]4(CO)[C@H]3CC[C@]12C)C(C)C,GI50,NCI-H460,2.18 µM (inactive)
same,GI50,Hs-578T,6.18 µM (inactive)
same,GI50,RXF 393,3.32 µM (inactive)
same,GI50,SK-MEL-28,4.1 µM (inactive)
same,GI50,RPMI-8226,5.08 µM (inactive)
same,GI50,SF-295,9.12 µM (inactive)
same,GI50,BT-549,8.09 µM (inactive)
same,GI50,NCI-H522,5.24 µM (inactive)
same,GI50,LOX IMVI,3.11 µM (inactive)
same,GI50,HCT-15,2.83 µM
same,GI50,OVCAR-8,5.47 µM (inactive)
same,GI50,MDA-N,8.49 µM (inactive)
same,GI50,SW-620,5.98 µM (inactive)
same,GI50,IGROV-1,5.18 µM (inactive)
same,GI50,OVCAR-5,6.68 µM (inactive)
same,GI50,PC-3,4.94 µM (inactive)
same,GI50,U-251,6.44 µM (inactive)
same,GI50,A498,6.62 µM (inactive)
same,GI50,HOP-62,7.57 µM (inactive)
same,GI50,SF-268,6.35 µM (inactive)
same,GI50,MDA-MB-231,4.17 µM (inactive)
same,GI50,CCRF-CEM,3.56 µM (inactive)
same,GI50,SN12C,6.11 µM (inactive)
same,GI50,SK-OV-3,9.1 µM (inactive)
same,GI50,SK-MEL-2,7.33 µM (inactive)
same,GI50,COLO 205,7.71 µM (inactive)
same,GI50,HT-29,1.98 µM (inactive)
same,GI50,HCC 2998,0.382 µM (active)
same,GI50,NCI-H23,5.75 µM (inactive)
same,GI50,KM12,2.09 µM (inactive)
same,GI50,M14,6.97 µM (inactive)
same,GI50,DU-145,3.48 µM (inactive)
same,GI50,UACC-62,8.15 µM (inactive)
same,GI50,UACC-257,7.46 µM (inactive)
same,GI50,T47D,1.79 µM (inactive)
same,GI50,CAKI-1,5.64 µM (inactive)
same,GI50,UO-31,3.42 µM (inactive)
same,GI50,HCT-116,2.9 µM (inactive)
same,GI50,Malme-3M,6.49 µM (inactive)
same,GI50,HOP-92,8.28 µM (inactive)
same,GI50,ACHN,5.81 µM (inactive)
same,GI50,MDA-MB-435,7.45 µM (inactive)
same,GI50,OVCAR-4,6.84 µM (inactive)
same,GI50,HL-60,6.34 µM (inactive)
same,GI50,A549,4.23 µM (inactive)
same,GI50,SF-539,9.75 µM (inactive)
same,GI50,K562,1.49 µM (inactive)
same,GI50,786-0,3.75 µM (inactive)
same,GI50,SNB-75,8.32 µM (inactive)
same,GI50,SNB-19,7.98 µM (inactive)
same,GI50,EKVX,2.1 µM (inactive)
same,GI50,NCI/ADR-RES,4.49 µM (inactive)
same,GI50,SK-MEL-5,8.79 µM (inactive)
same,GI50,NCI-H226,9.29 µM (inactive)
same,GI50,SR,2.71 µM (inactive)
same,GI50,TK-10,2.37 µM (inactive)
same,GI50,MOLT-4,3.3 µM (inactive)
same,GI50,MCF7,2.67 µM (inactive)
same,GI50,OVCAR-3,2.52 µM (inactive)
